Reference: patent publication US8530454B2, “Use of 2,5-dihydroxybenzene compounds and derivatives for the treatment of psoriasis” (Amderma Pharmaceuticals, LLC, priority 2006, dated 2013)

Tests used:
rat glioma C6 cells = experiment: Rat glioma C6 cell proliferation, crystal violet staining; type: cell-based; details: 48 h; for C6 cell proliferation (percentage of control absorbance at 595 nm): 500 μM, p<0.001 vs control (FIG. 12)
Protocol: The cell line used was rat glioma C6 cells. The cells were cultured as previously described (Cuevas P et al. Neurol Res, 2005). The cells were cultured as adherent cells in Dulbecco's modified Eagle's medium, supplemented with 7.5% (v/v) of fetal bovine serum, 10 μg/ml of streptomycin and 10 units/ml of penicillin. The tumor cells were seeded in 24-well plates at a density of 10,000 cells/well, and were incubated at 37° C. in a humidified chamber with 5% CO2. Once adhered, the cells were treated or not (controls) with 2,5-dihydroxybenzoate at 100, 200, 500 or 1000 μM and they were allowed to proliferate for 48 h. After this time the glioma cell proliferation was evaluated by means of staining the fixed cells with crystal violet. The number of cells is proportional to the amount of retained dye, which was spectrophotometrically determined by measuring the absorbance at 595 nm once the dye was extracted from the cells.
(§1) The cell line used was the C6 cell line and the experiment was carried out as described in Example 2. Once adhered, the cells were treated or not (controls) with increasing concentrations of 2,5-DHC (10, 25, 50 and 100 μM) and they were allowed to proliferate for 48 h. After this time the glioma cell proliferation was evaluated by means of staining the fixed cells with crystal violet. The number of cells is proportional to the amount of retained dye, which was determined spectrophotometrically by measuring absorbance at 595 nm once the dye was extracted from the cells.
as §1, with “examples 2 and 3.” for “Example 2.”, “(5A-2HBS) (500 μM) or (2A-5HBS) (500” for “increasing concentrations of 2,5-DHC (10, 25, 50 and 100”, “measuring the” for “measuring”

[1] = tested on: bFGF-induced fibrosis in rat adipose tissue; experiment: bFGF-induced fibrosis around subcutaneously implanted gelatin sponges; type: in vivo, Sprague-Dawley rats; details: 100 μM in sponge with bFGF and heparin, 7 days, vs bFGF alone
Protocol: Sterile gelatin sponges (1 mm^3; Curaspon Dental, Clinimed Holding, Zwanenburg, The Netherlands) were subcutaneously implanted in the dorsal region of the neck in Sprague-Dawley rats after the induction of intraperitoneal anesthesia. The animals were split into two groups: group A, the sponges were moistened with 200 μl of saline solution which contained 25 μg/ml of heparin and 10 μg/ml of basic FGF (bFGF); group B, the sponges were moistened in the same solution as in group A, but which solution farther contained 2,5-dihydroxybenzoate (100 μM). After 7 days, the sponges and the surrounding subcutaneous fat were removed and histologically analyzed.

[2] = tested on: mitogenesis induced by fibroblast growth factor-1 (FGF-1) in Balb/c 3T3 fibroblasts; experiment: Inhibition of FGF-1-induced mitogenesis in quiescent Balb/c 3T3 fibroblasts; type: cell-based; details: quiescent Balb/c 3T3 cultures; potassium salts, calcium salt for 2-acetoxy-5-hydroxybenzene sulfonate
Protocol: The evaluated compounds were used in the form of potassium salt, except in the first case which used calcium salt. The experiments were carried out as described in Fernández-Tornero C et al. J Biol Chem, 2003.

[3] = biological target: fibroblast growth factor-1 (FGF-1) (Homo sapiens, UniProt P05230); experiment: Crystal diffraction of co-crystal complexes with FGF-1; type: binding; details: electron density contoured at 1σ; for acetoxyl groups retained when bound to FGF-1: co-crystal; for binding site on FGF-1 in the co-crystal: reference lysine 132
Protocol: Based on the crystal diffraction of the FGF-1:2-acetoxy-5-hydroxybenzene sulfonic acid, FGF-1:5-acetoxy-2-hydroxybenzene sulfonic acid and FGF-1:2,5-diacetoxybenzene sulfonic acid complexes, the structures of the complexes were calculated and represented. FIGS. 13, 14 and 15, which show the surface of the dyed protein according to its electrostatic potential (light grey, negative charge; dark grey, positive charge; white, regions with no charge), show the manner in which 2-acetoxy-5-hydroxybenzene sulfonic acid, 5-acetoxy-2-hydroxybenzene sulfonic acid and 2,5-diacetoxybenzene sulfonic acid interact, respectively, with FGF-1.

[4] = tested on: subcutaneous gliomas from implanted rat glioma C6 cells; experiment: Progression of established subcutaneous C6 gliomas in rats; type: in vivo; details: 100 mg/kg/day i.p. for 10 days
Protocol: Rat C6 glioma cells were cultured as previously described (Cuevas P et al. Neurol Res, 2005). The C6 cells cultured to confluence in 75 cm^2 flasks were removed and implanted under the abdominal skin in anesthetized rats. The existence of a tumor in the implantation area was observed five days after the implantation of the tumor cells. Only the rats in which the existence of a tumor was observed were randomly assigned to be treated with daily intraperitoneal injections of 2,5-dihydroxybenzene sulfonate (DHBS; 100 mg/kg/day), 2,5-diacetoxybenzene sulfonate (DABS; 100 mg/kg/day) or the carrier (0.9% NaCl). After 10 days of treatment, the subcutaneous gliomas were removed and their volume was calculated according to the formula V=4/3π·(L/2)·(A/2)^2 (in mm^3) where L is the larger diameter and A is the smaller diameter, both expressed in mm.

[5] = tested on: tumor cells of subcutaneous gliomas; experiment: Apoptosis in sections of established subcutaneous gliomas (hematoxylin and eosin); type: in vivo, rat; details: 100 mg/kg/day i.p. for 10 days, vs carrier (very scarce)
From the text: Tumor cells elude the programmed cell death process or apoptosis that normal cells experience. Apoptosis induction in tumor cells is one way to confront the development of a tumor. To evaluate the effect of potassium 2,5-dihydroxybenzene sulfonate […] on tumor cell apoptosis, 6 μm thick sections of the subcutaneous gliomas described in example 4 were made. The sections were stained with hematoxylin and eosin and observed at a magnification of 313 times using immersion oil. In these conditions, cell apoptosis is shown by the existence of apoptotic bodies appearing as strongly chromogenic granules in the cell nucleus which is frequently fragmented.

[6] = tested on: human prostate cancer PC-3 cells; experiment: Human tumor cell proliferation (XTT), PC-3; type: cell-based; details: 1-200 μM, 96 h
Protocol: (§2) The cell lines used were the human prostate cancer PC-3 cells and human lung cancer A549 cells. 2000 cells were seeded per well in 96-well plates and they were allowed to adhere overnight. Then the cells were treated or not (controls) with potassium 2,5-diacetoxybenzene sulfonate (DABS) (1-200 μM) and they were allowed to proliferate for 96 h. After this time, the PC-3 and A549 cell proliferation was evaluated by determining the final number of cells by means of the viability method of yellow tetrazolium salt (XTT). The data were expressed as a percentage of the control (without treatment).

[7] = tested on: human lung cancer A549 cells; experiment: Human tumor cell proliferation (XTT), A549; type: cell-based; details: 1-200 μM, 96 h
Protocol: as §2

[8] = tested on: subcutaneous tumors from human prostate cancer PC-3 cells; experiment: Subcutaneous PC-3 prostate cancer cell implantation model in athymic mice; type: in vivo, athymic mice (Nu/Nu); details: 100 mg/kg daily i.p. for 15 days, vs carrier
Protocol: 5×10^6 human prostate cancer PC-3 cells were subcutaneously injected in male athymic mice (Nu/Nu) of 6-8 weeks of age and weighing 20-26 g. Ten days after the implantation of the tumor cells, the mice were randomly split into two groups: one of them received a daily injection of potassium 2,5-diacetoxybenzene sulfonate (DABS) by intraperitoneal route at a dose of 100 mg/kg dissolved in saline (0.9% NaCl) whereas the other group received a daily injection of carrier (saline). The treatments were administered for 15 days. The volumes of the tumors induced by the implantation of PC-3 cells were measured through the skin on alternating days using a Vernier caliper. The volume was calculated using the formula V=(D×2d)/2, where D is the larger diameter in mm, d is the smaller diameter in mm and V is the volume in mm3. At the end of treatment, the mice were sacrificed and the tumors were weighed.

fibroblast growth factor-1 (FGF-1), sequence (P05230 whole entry, species assumed): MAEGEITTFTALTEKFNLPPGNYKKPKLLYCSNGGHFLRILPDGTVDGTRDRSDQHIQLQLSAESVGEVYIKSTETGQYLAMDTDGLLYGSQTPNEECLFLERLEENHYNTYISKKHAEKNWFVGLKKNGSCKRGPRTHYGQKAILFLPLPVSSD

Question: For O=C(O)C=Cc1cc(O)ccc1O [2,5-DHC, 3-(2,5-dihydroxyphenyl)-2-propenoic acid], which “C6 cell proliferation relative to control” value (rat glioma C6 cells; 50 μM) is on record?
Answer: Its value is “less than half”.

Question: And the “C6 cell proliferation relative to control” value (rat glioma C6 cells; 100 μM)?
Answer: Its value is “one tenth”.

Question: For O=C([O-])c1cc(O)ccc1O.[K+] [2,5-dihydroxybenzoate, potassium 2,5-dihydroxybenzoate], which “bFGF-induced fibrosis (fibroblasts in septa of connective tissue of adipose tissue)” value [1] is on record?
Answer: Its value is “reduces bFGF-induced fibrosis”.

Question: And the “C6 cell proliferation (absorbance at 595 nm)” value (rat glioma C6 cells; 100, 200, 500 and 1000 μM)?
Answer: Its value is “inhibited rat glioma C6 cell proliferation in a concentration-dependent manner”.

Question: What about the “statistical significance of inhibition of C6 cell proliferation vs control” value (rat glioma C6 cells; 500 and 1000 μM, p<0.001 (FIG. 2)) of the same compound?
Answer: Its value is “statistically significant”.

Question: Which results are given for CC(=O)Oc1ccc(O)cc1S(=O)(=O)[O-].[K+] [2A-5HBS, potassium 2-acetoxy-5-hydroxybenzene sulfonate]?
Answer: C6 cell proliferation (percentage of control absorbance at 595 nm) (rat glioma C6 cells): caused the inhibition of rat glioma cell proliferation; inhibition of mitogenesis induced by FGF-1 [2]: inhibition of mitogenesis induced by FGF-1; acetoxyl groups retained when bound to FGF-1 [3]: conserve the acetoxyl groups; binding site on FGF-1 in the co-crystal [3]: occupy a site that is very close to the one that has been described occupied by 2,5-dihydroxybenzene sulfonic acid

Question: For CC(=O)Oc1ccc(O)c(S(=O)(=O)[O-])c1.[K+] [5A-2HBS, potassium 5-acetoxy-2-hydroxybenzene sulfonate], which “C6 cell proliferation (percentage of control absorbance at 595 nm)” value (rat glioma C6 cells) is on record?
Answer: Its value is “caused the inhibition of rat glioma cell proliferation”.

Question: What about the “inhibition of mitogenesis induced by FGF-1” value (“inhibition … by FGF-1” for short) [2] of the same compound?
Answer: The value was “inhibition of mitogenesis induced by FGF-1”.

Question: And the “acetoxyl groups retained when bound to FGF-1” value [3]?
Answer: The value was “conserve the acetoxyl groups”.

Question: What about the “binding site on FGF-1 in the co-crystal” value [3] of the same compound?
Answer: Its value is “occupy a site that is very close to the one that has been described occupied by 2,5-dihydroxybenzene sulfonic acid”.

Question: How did the “rats tumor-free when treatment ended” value ([4]; all rats had established tumors before treatment) turn out when CC(=O)Oc1ccc(OC(C)=O)c(S(=O)(=O)[O-])c1.[K+] [DABS, potassium 2,5-diacetoxybenzene sulfonate] was run?
Answer: Its value is 4 rats.

Question: And the “probability of being tumor-free (χ2 test), DABS group vs DHBS group” value ([4]; p<0.05)?
Answer: The value was “greater probability of being tumor-free”.

Question: And the “tumor cells in apoptosis in glioma sections” value [5]?
Answer: The value was “a large number of tumor cells in apoptosis”.

Question: What about the “PC-3 cell proliferation (percentage of control)” value [6] of the same compound?
Answer: Its value is “significant inhibition”.

Question: And the “A549 cell proliferation (percentage of control)” value [7]?
Answer: Its value is “significant inhibition”.

Question: What about the “tumor growth (tumor volume through the skin)” value ([8]; start 10 days after implantation) of the same compound?
Answer: The value was “significantly reduced”.

Question: What about the “weight of the extracted tumor when treatment ended” value ([8]; p<0.05) of the same compound?
Answer: Its value is “significant reduction of the weight”.

Question: What about the “inhibition … by FGF-1” value [2] of the same compound?
Answer: Its value is “inhibition of mitogenesis induced by FGF-1”.

Question: What about the “acetoxyl groups retained when bound to FGF-1” value [3] of the same compound?
Answer: The value was “conserve the acetoxyl groups”.

Question: What about the “binding site on FGF-1 in the co-crystal” value [3] of the same compound?
Answer: The value was “occupy a site that is very close to the one that has been described occupied by 2,5-dihydroxybenzene sulfonic acid”.

Question: With O=S(=O)([O-])c1cc(O)ccc1O.[K+] [DHBS, potassium 2,5-dihydroxybenzene sulfonate, reference compound] as the compound, how does the “average size (volume) of subcutaneous gliomas” value ([4]; treatment from day 5 after implantation, vs carrier) read?
Answer: Its value is “less than that of the rats treated with carrier”.

Question: And the “inhibition … by FGF-1” value [2]?
Answer: Its value is “inhibition of the mitogenesis”.
